Reference: paper PMC12236907, “A Natural Depsipeptide Antibiotic that Targets the E site of the Bacterial Ribosome” (Research Square, 2025)
“Also recorded” adds a separate entry of the source. Where a SMILES comes first, the peptide text is derived from it. Bridges are numbered along the chain shown (N, C = ends). [ ]: non-standard residue; d: D form. dOrn = NCCC[C@@H](N)C(=O)O

Legend:
[1] = tested on: E. coli strain SQ110ΔtolC::pZsbmA; conditions: agar with 4×MIC of MKM (32 μg/ml)
[2] = biological target: rabbit reticulocyte lysate; experiment: Inhibition of protein synthesis in rabbit reticulocyte lysate programmed with luciferase mRNA; assay type: biochemical
[3] = tested on: K. pneumoniae ATCC 33495 and C1559; experiment: C. elegans – K. pneumoniae in vivo antibiotic activity assay (survival); set-up: species or system K. pneumoniae in Caenorhabditis elegans
Protocol: A C. elegans double mutant strain, AU37 (glp-4(bn2);sek-1(km4)), was used for this assay due to its enhanced pathogen infection sensitivity and temperature-sensitive sterility. The infection protocol was carried out as previously described, with slight modifications to accommodate our experimental conditions. Standard C. elegans media and protocols were used for the maintenance and growth of worms. To summarize, eggs were collected from gravid adult worms by bleaching and incubated on solid agar plates at 25 °C for 48 hours, until early adulthood. Worms were thoroughly washed with M9 buffer and transferred onto LB agar plates containing lawns of infective K. pneumoniae and incubated for another 24 hours. Worms were then washed from plates and resuspended in M9 to an approximate 2 worm per microlitre concentration. A survival assay was conducted in a 96-well plate with experimental wells containing 15 μl of worms, 80 μl S-basal (5.85 g NaCl, 1 g K2HPO4, 6 g KH2PO4, 1 ml cholesterol (5 mg/ml in ethanol), H2O to 1 litre. Sterilize by autoclaving), and 5 μl of test compound. Plates were sealed with a porous film and incubated at 25°C for a total of 7 days. The number of dead worms were counted every 24 hours to generate a Kaplan-Meier survival curve.

Klebsiella pneumoniae = experiment: Antimicrobial activity, Klebsiella pneumoniae; assay type: cell-based
mycobacteria = experiment: Antimicrobial activity, mycobacteria; assay type: cell-based; conditions: Middlebrook 7H9 + 10% OADC + 0.05% Tween-80
E. coli = experiment: Antimicrobial activity, E. coli; assay type: cell-based, Escherichia coli
K. pneumoniae C1559 = experiment: Time-dependent killing assay, K. pneumoniae; assay type: cell-based, Klebsiella pneumoniae; conditions: K. pneumoniae C1559, MHB, 5×MIC (80 μg/ml), 37°C, 0-24 h; mean of three biological replicates
Protocol: E. coli BW25113 and Klebsiella pneumoniae C1559 were grown overnight in 5 ml of cation-adjusted Mueller-Hinton Broth. The cultures were then inoculated into fresh medium to achieve an OD600 of 0.1, corresponding to a concentration of 10^8 CFU/ml. […] Samples were taken at 0 h, 3 h, 6 h, and 24 h post-incubation, plated on MHA plates, and incubated for 20–24 hours at 37°C. Colony counts were used to determine the log reduction in CFU/ml, comparing treated strains to untreated control samples.

[4] = tested on: E. coli BW25113 ΔtolCΔbamB expressing ManE; experiment: MIC in ManE-expressing E. coli; conditions: manE on pGDP3
bacterial membrane = experiment: Membrane permeabilization (propidium iodide uptake and NPN assays); assay type: cell-based; conditions: E. coli BW25113; PI 4 μM up to 10×MIC (80 μg/ml), NPN 10 μM; 30 min, room temperature
Protocol: E. coli BW25113 cells were prepared according to the method for time-dependent killing and mixed with propidium iodide at a final concentration of 4 μM. A 190 μl aliquot of the cell suspension was added to the wells of a 96-well black-wall plate, followed by the addition of 10 μl of compounds at different concentrations up to 10×MIC (80 μg/ml). Colistin (5 μg/ml) was included as a positive control. Fluorescence was measured at an excitation/emission wavelength of 535/617 nm for 30 min at room temperature using a Synergy Microplate Reader (Biotek).
An overnight culture of E. coli BW25113 was subcultured into fresh MOPS minimal medium and allowed to grow until reaching mid-exponential phase. The culture was then diluted to an OD 600 of 0.1–0.2 in the same medium and supplemented with 10 μM NPN dye (prepared from a 20 mM stock solution in acetone). A volume of 190 μl of this cell suspension was combined with 10 μl of test compounds at various concentrations in a black 96-well plate. Water served as the vehicle control, as MKM-A was dissolved in water (adjust the vehicle accordingly based on the solubility of your compound). Colistin at 5 μg/ml was included as a positive control. Fluorescence was measured over a 30 min period at room temperature using a microplate reader, with readings taken every 0.5–1 min at an excitation/emission wavelength of 350/420 nm.

[5] = tested on: E. coli strain SQ110ΔtolC::pZsbmA; experiment: Minimum inhibitory concentration, hypersusceptible E. coli SQ110ΔtolC::pZsbmA and its 23S rRNA mutants; conditions: 11 mutants: deletion of one adenine in A2432-A2435 (10) or of C249 (1) in 23S rRNA
[6] = tested on: bacteria with resistance mechanisms to other translation-inhibiting antibiotics; conditions: bacterial pathogens; unique site of action in the ribosome
[7] = tested on: multi-drug-resistant Enterobacteriaceae

## C[C@@H](O)[C@@H]1NC(=O)[C@@H](CCCNC(=N)N)NC(=O)[C@@H](CCCNC(=N)N)NC(=O)[C@@H](CC(N)=O)NC(=O)[C@@H](NC(=O)[C@@H](Cc2ccccc2)NC(=O)[C@@H](CCCN)NC(=O)[C@H](N)CCCNC(=N)N)[C@@H](C)OC(=O)[C@H](Cc2c[nH]cn2)NC1=O [MKM, manikomycin A] (H-[dR][dOrn][dF]T[dN][dR][dR]TH; ester 4-C)
[1]
  frequency of resistant colonies: ~ 10^−7
[2]; IC50 9.2 μM vs 0.6 μM in E. coli system
  IC50 ratio rabbit reticulocyte lysate / bacterial system: approximately 15 fold
[2]; rabbit reticulocyte lysate (Fig. 2d)
  inhibition of eukaryotic / mammalian translation (in words): poor inhibition; also recorded: very weak inhibitor
[2]; rabbit reticulocyte lysate, luciferase mRNA
  IC50: 9.2 µM
[2]; rabbit reticulocyte lysate, higher than cycloheximide
  IC50 ratio to cycloheximide: 35 fold
[3]; MKM 64 μg/ml or polymyxin B 25 μg/ml, 6 days, vs DMSO, Log-rank (Mantel–Cox) test
  survival benefit in C. elegans (in words): significantly improved survival; also recorded: markedly improved survival
[3]; MKM 64 μg/ml, both infection models (ATCC 33495 and C1559), DMSO ~10% (ATCC 33495), ~30% (C1559), n > 60 worms per group
  nematodes alive by day 6: 55–60%
Klebsiella pneumoniae
  antimicrobial activity: selective antimicrobial activity
mycobacteria
  growth inhibition: readily inhibits the growth
E. coli
  antimicrobial activity: selective antimicrobial activity
K. pneumoniae C1559
  time-kill effect: bactericidal
[4]
  increase in MIC on ManE expression: > 32 fold
Bacterial membrane
  membrane permeabilization / disruption: failed to permeabilize or distrupt the bacterial membrane
[5]
  increase in MKM MIC: > 16 fold
[6]
  sensitivity to resistance mechanisms against other translation inhibitors: insensitive to resistance mechanisms
[7]
  killing of multi-drug-resistant Enterobacteriaceae: can kill
